One block for each compound: values may come before it. Active and inactive are the calls of the source. No cut-off for these calls is given here.
What was measured:
Rattus norvegicus [1] = experiment: Antidiabetic activity in Zucker diabetic fatty rat assessed as reduction in plasma glucose level at 3 mg/kg, po administered once daily for 14 days measured on day 15 relative to control; assay type: functional; parameters: scale not given: the % may be the effect or the level left
Rattus norvegicus [2] = experiment: Toxicity in Zucker diabetic fatty rat assessed as body weight gain at 3 mg/kg, po administered once daily for 14 days relative to control; assay type: organism-based; settings: in vivo, 336 h
Rattus norvegicus [3] = experiment: Antidiabetic activity in Zucker diabetic fatty rat assessed as reduction in plasma glucose level administered orally once daily for 21 days measured on day 22; assay type: functional, organism-based
Rattus norvegicus [4] = experiment: Antidiabetic activity in Zucker diabetic fatty rat assessed as reduction in plasma glucose level at 0.3 mg/kg, po administered once daily for 21 days measured on day 22 relative to control; assay type: functional; parameters: scale not given: the % may be the effect or the level left
[5] = Cmax in Zucker diabetic fatty rat at 0.3 mg/kg, po administered once daily for 21 days followed by additional administration on day 22; assay type: ADME, organism-based; parameters: dose 0.3 mg/kg, route oral; settings: in vivo
[6] = Tmax in Zucker diabetic fatty rat at 0.3 mg/kg, po administered once daily for 21 days followed by additional administration on day 22; assay type: ADME, organism-based; settings: in vivo
[7] = AUC (0 to 24 hrs) in Zucker diabetic fatty rat at 0.3 mg/kg, po administered once daily for 21 days followed by additional administration on day 22; assay type: ADME, organism-based; parameters: dose 0.3 mg/kg, time < 24 hr, route oral; settings: in vivo
[8] = Cmax in F344/DuCrlCrlj rat at 50 mg/kg, po via gavage measured on day 28 post dose; assay type: ADME, organism-based; parameters: dose 50 mg/kg, route oral; settings: in vivo
[9] = AUC (0 to 24 hrs) in F344/DuCrlCrlj rat at 50 mg/kg, po via gavage measured on day 28 post dose; assay type: ADME, organism-based; parameters: time < 24 hr, dose 50 mg/kg, route oral; settings: in vivo
[10] = Drug uptake in F344/DuCrlCrlj rat plasma administered via oral gavage measured on day 28 post dose; assay type: ADME
Rattus norvegicus [11] = experiment: Toxicity in F344/DuCrlCrlj rat assessed as death at 50 mg/kg, po administered via gavage once daily for 28 days; assay type: organism-based; settings: in vivo, 672 h
Rattus norvegicus [12] = experiment: Toxicity in F344/DuCrlCrlj rat assessed as clinical abnormality at 50 mg/kg, po administered via gavage once daily for 28 days; assay type: organism-based; settings: in vivo, 672 h
Rattus norvegicus [13] = experiment: Toxicity in F344/DuCrlCrlj rat assessed as body weight gain at 50 mg/kg, po administered via gavage once daily for 28 days relative to control; assay type: organism-based; settings: in vivo, 672 h
Rattus norvegicus [14] = experiment: Toxicity in F344/DuCrlCrlj rat assessed as reduction in RBC count at 50 mg/kg, po administered via gavage once daily for 28 days relative to control; assay type: organism-based; parameters: scale not given: the % may be the effect or the level left; settings: in vivo, 672 h
Rattus norvegicus [15] = experiment: Toxicity in F344/DuCrlCrlj rat assessed as effect on hematocrit at 50 mg/kg, po administered via gavage once daily for 28 days; assay type: organism-based; settings: in vivo, 672 h
Rattus norvegicus [16] = experiment: Toxicity in F344/DuCrlCrlj rat assessed as increase in heart weight at 50 mg/kg, po administered via gavage once daily for 28 days; assay type: organism-based; settings: in vivo, 672 h
Rattus norvegicus [17] = experiment: Toxicity in F344/DuCrlCrlj rat assessed as effect on kidney weight at 50 mg/kg, po administered via gavage once daily for 28 days; assay type: organism-based; settings: in vivo, 672 h
Rattus norvegicus [18] = experiment: Toxicity in F344/DuCrlCrlj rat assessed as effect on ovary weight at 50 mg/kg, po administered via gavage once daily for 28 days; assay type: organism-based; settings: in vivo, 672 h
[19] = molecular target: T1, Peroxisome proliferator-activated receptor gamma (Homo sapiens) (UniProt P37231); experiment: Agonist activity at recombinant human GAL4-TAD fused PPARgamma LBD assessed as induction of GAL4-DBD fused RIP140e184b co-factor recruitment after 24 to 48 hrs by fluorescence assay
T1 sequence (whole entry): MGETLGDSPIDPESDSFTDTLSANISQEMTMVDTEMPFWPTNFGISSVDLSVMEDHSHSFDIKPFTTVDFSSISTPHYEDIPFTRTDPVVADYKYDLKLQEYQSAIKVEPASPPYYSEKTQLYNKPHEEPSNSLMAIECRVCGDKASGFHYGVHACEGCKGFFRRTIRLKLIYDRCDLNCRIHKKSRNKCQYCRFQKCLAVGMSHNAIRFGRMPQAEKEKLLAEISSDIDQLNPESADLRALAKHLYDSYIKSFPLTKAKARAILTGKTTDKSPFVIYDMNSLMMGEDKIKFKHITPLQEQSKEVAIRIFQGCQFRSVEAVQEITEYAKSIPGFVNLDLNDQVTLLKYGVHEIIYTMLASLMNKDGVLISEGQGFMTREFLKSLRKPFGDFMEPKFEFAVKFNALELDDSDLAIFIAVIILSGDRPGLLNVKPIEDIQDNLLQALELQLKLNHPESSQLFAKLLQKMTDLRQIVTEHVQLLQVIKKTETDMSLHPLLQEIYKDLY

[20] = molecular target: T1, Peroxisome proliferator-activated receptor gamma (Homo sapiens); experiment: Agonist activity at recombinant human GAL4-TAD fused PPARgamma LBD assessed as induction of GAL4-DBD fused TRAP220 co-factor recruitment after 24 to 48 hrs by fluorescence assay
[21] = molecular target: T1, Peroxisome proliferator-activated receptor gamma (Homo sapiens); experiment: Agonist activity at recombinant human GAL4-TAD fused PPARgamma LBD assessed as induction of GAL4-DBD fused CBP co-factor recruitment after 24 to 48 hrs by fluorescence assay
[22] = molecular target: T1, Peroxisome proliferator-activated receptor gamma (Homo sapiens); experiment: Agonist activity at recombinant human GAL4-TAD fused PPARgamma LBD assessed as induction of GAL4-DBD fused SRC1 co-factor recruitment after 24 to 48 hrs by fluorescence assay
[23] = molecular target: T1, Peroxisome proliferator-activated receptor gamma (Homo sapiens); experiment: Agonist activity at recombinant human GAL4-TAD fused PPARgamma LBD assessed as induction of GAL4-DBD fused NCoA3 co-factor recruitment after 24 to 48 hrs by fluorescence assay
in vivo = settings: F344/DuCrlCrlj, rat, po, 50 mg/kg
Description: Tmax in F344/DuCrlCrlj rat at 50 mg/kg, po via gavage measured on day 28 post dose

[24] = molecular target: T2, Peroxisome proliferator-activated receptor gamma (Homo sapiens, UniProt P37231); experiment: Agonist activity at recombinant human GAL4-DBD fused PPARgamma LBD expressed in COS7 cells after 24 hrs by luciferase reporter gene assay; assay type: cell-based
T2 sequence (P37231 whole entry): T1 sequence (whole entry)

[25] = molecular target: T1, Peroxisome proliferator-activated receptor gamma (Homo sapiens); experiment: Agonist activity at recombinant human GAL4-DBD fused PPARgamma LBD expressed in COS7 cells at 10 uM after 24 hrs by luciferase reporter gene assay relative to rosiglitazone; assay type: cell-based
[26] = molecular target: T3, Peroxisome proliferator-activated receptor alpha (Homo sapiens, UniProt Q07869); experiment: Agonist activity at recombinant human GAL4-DBD fused PPARalpha LBD expressed in COS7 cells after 24 hrs by luciferase reporter gene assay; assay type: cell-based
T3 sequence (Q07869 whole entry): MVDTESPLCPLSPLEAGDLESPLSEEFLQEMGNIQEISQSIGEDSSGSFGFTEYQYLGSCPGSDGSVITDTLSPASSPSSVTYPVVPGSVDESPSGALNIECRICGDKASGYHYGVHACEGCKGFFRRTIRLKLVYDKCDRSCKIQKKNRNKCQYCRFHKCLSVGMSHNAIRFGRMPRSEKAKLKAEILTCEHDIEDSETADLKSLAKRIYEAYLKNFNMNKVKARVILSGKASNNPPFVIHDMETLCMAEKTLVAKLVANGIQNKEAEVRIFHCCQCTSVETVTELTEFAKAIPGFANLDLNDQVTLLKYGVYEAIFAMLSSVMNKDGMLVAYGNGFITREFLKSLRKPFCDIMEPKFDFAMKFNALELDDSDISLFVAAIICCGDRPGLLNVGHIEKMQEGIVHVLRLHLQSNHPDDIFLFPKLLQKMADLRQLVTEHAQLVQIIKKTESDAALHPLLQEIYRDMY

[27] = molecular target: T4, Peroxisome proliferator-activated receptor alpha (Homo sapiens) (UniProt Q07869); experiment: Agonist activity at recombinant human GAL4-DBD fused PPARalpha LBD expressed in COS7 cells at 10 uM after 24 hrs by luciferase reporter gene assay relative to 2-(4-tert-Butylphenoxy)-3-[4-[2-[(4-pyridin-2-ylbenzoyl)amino]ethoxy] phenyl]propionic acid; assay type: cell-based
T4 sequence (whole entry): T3 sequence (Q07869 whole entry)

[28] = 1-octanol/PBS distribution co-efficient, log D of the compound at […] at pH 7.4 after 30 mins by HPLC-MS/MS method; assay type: physicochemical
[29] = Apparent permeability of the compound after 4 hrs by PAMPA; assay type: ADME
[30] = Metabolic stability in human liver microsomes after 0.5 hrs; assay type: ADME, microsome; settings: read-out: Stability
[31] = Metabolic stability in cynomolgus monkey liver microsomes after 0.5 hrs; assay type: ADME, Macaca fascicularis, microsome; settings: read-out: Stability
[32] = Cmax in cynomolgus monkey at 3 mg/kg, po by LC-MS/MS; assay type: ADME, organism-based, Macaca fascicularis; parameters: dose 3 mg/kg, route oral; settings: in vivo
[33] = Tmax in cynomolgus monkey at 3 mg/kg, po by LC-MS/MS; assay type: ADME, organism-based, Macaca fascicularis; settings: in vivo
[34] = Half life in cynomolgus monkey at 3 mg/kg, po by LC-MS/MS; assay type: ADME, organism-based, Macaca fascicularis; settings: in vivo
[35] = AUClast in cynomolgus monkey at 3 mg/kg, po by LC-MS/MS; assay type: ADME, organism-based, Macaca fascicularis; parameters: dose 3 mg/kg, time 0 - last, route oral; settings: in vivo
[36] = Oral bioavailability in cynomolgus monkey at 3 mg/kg by LC-MS/MS; assay type: ADME, organism-based, Macaca fascicularis; settings: in vivo
[37] = Clearance in cynomolgus monkey at 1 mg/kg, iv by LC-MS/MS; assay type: ADME, organism-based, Macaca fascicularis; settings: in vivo
[38] = Volume of distribution at steady state in cynomolgus monkey at 1 mg/kg, iv by LC-MS/MS; assay type: ADME, organism-based, Macaca fascicularis; settings: in vivo, read-out: Vdss
Hepatocyte [39] = experiment: Cytotoxicity against F344/DuCrlCrlj rat primary hepatocytes assessed as reduction in mitochondrial enzyme activity at 100 uM after 24 hrs by WST8 assay relative to control; assay type: cell-based; parameters: scale not given: the % may be the effect or the level left
Hepatocyte [40] = experiment: Cytotoxicity against F344/DuCrlCrlj rat primary hepatocytes assessed as reduction in mitochondrial enzyme activity at 10 to 100 uM after 24 hrs by WST8 assay; assay type: cell-based

Structure (SMILES): CN(CCOc1ccc(CC2SC(=O)NC2=O)cc1)c1ccccn1 (stereo unspecified) [ROSIGLITAZONE]
- Activity (Rattus norvegicus [1]): 40.3%
- Activity (Rattus norvegicus [2]): 12.6%
- Activity (Rattus norvegicus [3]): Dose-dependent effect
- Activity (Rattus norvegicus [4]): 50%
- Cmax [5]: 1040 ng/mL
- Tmax [6]: 1.6 h
- AUC at 24 h [7]: 6550 ng·h/mL
- Cmax [8]: 67600 ng/mL
- AUC at 24 h [9]: 525000 ng·h/mL
- Drug uptake [10]: Dose-dependent effect
- Activity (Rattus norvegicus [11]): Non-Toxic
- Activity (Rattus norvegicus [12]): Non-Toxic
- Activity (Rattus norvegicus [13]): 10%
- Activity (Rattus norvegicus [14]): 13%
- Activity (Rattus norvegicus [15]): Non-Toxic
- Activity (Rattus norvegicus [16]): 18%
- Activity (Rattus norvegicus [17]): Toxic
- Activity (Rattus norvegicus [18]): Toxic
- Activity [19]: Active
- Activity [20]: Active
- Activity [21]: Active
- Activity [22]: Active
- Activity [23]: Active
- Tmax (in vivo): 1 h

- EC50 [24]: 68 nM
- Emax [25]: 82%
- EC50 [26]: > 10000 nM
- Emax [27]: 32%
- logD at 0.5 h [28]: 2.7
- Papp at 4 h [29]: 38.5 ×10⁻⁶ cm/s
- remaining at 0.5 h [30]: 100%
- remaining at 0.5 h [31]: 100%
- Cmax [32]: 4440 ng/mL
- Tmax [33]: 1.67 h
- half-life [34]: 18.3 h
- AUC(0-t) [35]: 40200 ng·h/mL
- bioavailability [36]: 25%
- clearance [37]: 0.32 mL/min/kg
- Vd [38]: 0.2 L/kg
Structure (SMILES): Cn1c(COc2cccc(C(=O)O)c2)nc2ccc(Oc3ccc(Cl)c(F)c3)cc21
- Activity (Hepatocyte [39]): 19%
- Activity (Hepatocyte [40]): Dose-dependent effect

Reference: ChEMBL document CHEMBL4152362, “Discovery of DS-6930, a potent selective PPARγ modulator. Part II: Lead optimization” (Bioorg Med Chem, 2018)
